Test results taken from patent US7700584B2 (Hangzhou Minsheng Pharmaceuticals Co., Ltd., priority 2004, dated 2010).

What was measured:
Format in all cases: cell-based
Conditions in all cases: 50 μg/ml
[1] = test system: U-937 human histocytic lymphoma; assay: In vitro inhibition rate to tumor cells (MTT), U-937
Experimental: (§1) (1) Single cell suspension was seeded into 96-well plates (×3) (the cells was diluted in the PRMI-1640 minimum medium to 3×10^4 cells/ml, […] diluted cells/well). […] The experiments were performed in quadruplicate.
(§2) (2) The medium was removed. Solutions of the anti-tumor agents (15 compounds) were prepared in a freshly prepared medium at the concentrations indicated in the following Table. […] of the solution was added into each well. Incubation was continued for 48 hours.
(§3) (3) […] of 2 mg/ml MTT was added into each well, and incubated for 4 hours.
(§4) (4) The medium was removed from the well. The microplates were swiftly turned down to throw-off the medium. […] DMSO was added into each well, and vortexed at room temperature for 10 minutes.
(§5) (5) OD value (λ=570 nm) was measured with an Enzyme-Linked Detector.
(§6) (6) The inhibition rates (IR) of cell growth were respectively calculated based on the following equation: IR(%)=[1−(average OD of the experimental group/average OD of the control group)]×100%

[2] = test system: A-549 human lung adenocarcinoma; assay: In vitro inhibition rate to tumor cells (MTT), A-549
Experimental: as §1, §2, §3, §4, §5, §6

[3] = test system: Bel-7402 human hepatic carcinoma; assay: In vitro inhibition rate to tumor cells (MTT), Bel-7402
Experimental: as §1, §2, §3, §4, §5, §6

[4] = test system: MCF-7 human mammary adenocarcinoma; assay: In vitro inhibition rate to tumor cells (MTT), MCF-7
Experimental: as §1, §2, §3, §4, §5, §6

[5] = test system: SMMC-7721 human hepatic carcinoma; assay: In vitro inhibition rate to tumor cells (MTT), SMMC-7721
Experimental: as §1, §2, §3, §4, §5, §6

[6] = test system: HL-60 human promyelocytic leukemia; assay: In vitro inhibition rate to tumor cells (MTT), HL-60
Experimental: as §1, §2, §3, §4, §5, §6

[7] = test system: Hela human cervical carcinoma; assay: In vitro inhibition rate to tumor cells (MTT), Hela
Experimental: as §1, §2, §3, §4, §5, §6

[8] = test system: LLC mouse Lewis lung carcinoma; assay: In vitro inhibition rate to tumor cells (MTT), LLC
Experimental: as §1, §2, §3, §4, §5, §6

| SMILES | inhibition rate, Results (%) U-937 ([1]; Table 1) | inhibition rate, Results (%) U-937 ([1]; Table 2 (repeated screening)) | inhibition rate, Results (%) A-549 ([2]; Table 1) | inhibition rate, Results (%) A-549 ([2]; Table 2 (repeated screening)) | inhibition rate, Results (%) Bel-7402 ([3]; Table 1) | inhibition rate, Results (%) Bel-7402 ([3]; Table 2 (repeated screening)) | inhibition rate, Results (%) MCF-7 ([4]; Table 1) | inhibition rate, Results (%) MCF-7 ([4]; Table 2 (repeated screening)) | inhibition rate, Results (%) SMMC-7721 ([5]; Table 1) | inhibition rate, Results (%) SMMC-7721 ([5]; Table 2 (repeated screening)) | inhibition rate, Results (%) HL-60 ([6]; Table 1) | inhibition rate, Results (%) HL-60 ([6]; Table 2 (repeated screening)) | inhibition rate, Results (%) Hela ([7]; Table 1) | inhibition rate, Results (%) Hela ([7]; Table 2 (repeated screening)) | inhibition rate, Results (%) LLC ([8]; Table 1) | inhibition rate, Results (%) LLC ([8]; Table 2 (repeated screening)) |
| --- | --- | --- | --- | --- | --- | --- | --- | --- | --- | --- | --- | --- | --- | --- | --- | --- |
| CC(C)C1CC23OC1(O)CC(C)(Br)C2CCC3C (centres unmarked) [Compound 34, Curcumol monobromide without double bond] | 35.23% | 23.56% | 2.31% | 9.23% | 1.11% | 0.59% | 1.23% | 4.56% | −5.25% | 0.95% | 2.96% | 3.14% | 50.64% | 51.89% | −18.52% | −11.22% |
| CC(C)C1CC23OC1(O)CC(C)(O)C2CCC3C (centres unmarked) [Compound 35, Curcumol monohydroxy compound without double bond] | 7.36% | 0.23% | 3.89% | 2.77% | 3.65% | 6.78% | 3.89% | 9.87% | 5.23% | 4.32% | 3.12% | 3.99% | 59.88% | 64.01% | 8.97% | 8.23% |
| CC(C)C1CC23OC1(O)CC(C)(O[N+](=O)[O-])C2CCC3C (centres unmarked) [Compound 36, Curcumol mononitrate without double bond] | 6.98% | 5.32% | 9.21% | 1.20% | 0.22% | 0.02% | −1.23% | −2.31% | 15.39% | 14.08% | 1.03% | 2.01% | 62.13% | 65.23% | 11.56% | 11.56% |
| CC(C)C1CC23OC1(O)CC(CN1CCNCC1)(N1CCNCC1)C2CCC3C (centres unmarked) [Compound 41, Curcumol bispiperazine] | 8.65% | −1.02% | −2.50% | −7.89% | 16.78% | 1.23% | 36.45% | 31.28% | 4.42% | 3.12% | 6.78% | 1.86% | 50.32% | 51.23% | 30.96% | 23.65% |
| CC(C)C1CC23OC1(O)CC(CN1CCNCC1)(N1CCNCC1)C2CCC3C.Cl (centres unmarked) [Compound 42, Curcumol bispiperazine hydrochloride] | −12.5% | −1.03% | 10.16% | 3.12% | 2.15% | 14.36% | 34.21% | 30.12% | 6.86% | 0.79% | 2.73% | 3.14% | 55.64% | 54.03% | 9.99% | 1.79% |
| CC(C)C1CC23OC1(O)CC(C)(N1CCNCC1)C2CCC3C.Cl (centres unmarked) [Compound 44, Curcumol piperazine hydrochloride without double bond] | 35.64% | 23.56% | 23.01% | 20.33% | −6.54% | 0.23% | 25.55% | 24.11% | −10.53% | −7.89% | 3.71% | 5.37% | 55.14% | 50.01% | 23.35% | 17.565% |
| CCCCNC1(C)CC2(OC)OC3(CC2C(C)C)C(C)CCC13 (centres unmarked) [Compound 45, Curcumol methyl ether n-butyl amine without double bond] | 32.19% | 12.32% | 2.10% | 0.32% | 3.01% | 5.02% | 26.78% | 20.73% | −10.73% | −11.23% | 6.14% | 1.23% | 59.45% | 53.12% | 2.74% | 1.32% |
| CCCCNC1(C)CC2(OC)OC3(CC2C(C)C)C(C)CCC13.Cl (centres unmarked) [Compound 46, Curcumol methyl ether n-butyl amine hydrochloride without double bond] | 16.32% | 8.65% | 3.12% | 3.78% | 4.55% | 4.65% | 19.88% | 14.98% | −0.86% | −0.45% | −2.60% | −4.56% | 53.12% | 49.56% | −12.99% | −17.56% |
